“Also recorded” adds a separate entry of the source.
What follows are substances tested on microorganisms (e.g., bacteria, yeasts, fungi) (assay: Targeting peptide binding to target microorganisms (Table 3)). Conditions: microorganism the targeting peptide binds; binding in aqueous buffers varied by peptide solubility, preferably 1x PBS.

Row | Substance | Target(s)
1 | 1T-3 (VLGIAGGLDAYGELVGGN; Peptide with targeting and/or antimicrobial activity) [Peptide 1T-3] | S. mutans; also recorded: S. gordonii
2 | 1T-4 (LDAYGELVGGN; Peptide with targeting and/or antimicrobial activity) [Peptide 1T-4] | S. gordonii; also recorded: S. sanguinis; also recorded: S. oralis; also recorded: V. atypica; also recorded: L. casei; also recorded: S. mutans
3 | 1T-6 (KFINGVLSQFVLERK; Peptide with targeting and/or antimicrobial activity) [Peptide 1T-6] | S. mutans
4 | 1T-7 (SQRIIEPVKSPQPYPGFSVS; Peptide with targeting and/or antimicrobial activity) [Peptide 1T-7] | M. xanthus
5 | 1T-8 (FSVAACGEQRAVTFVLLIEDLI; Peptide with targeting and/or antimicrobial activity) [Peptide 1T-8] | M. xanthus
6 | 1T-9 (WAWAESPRCVSTRSNIHALAFRVEVAALT; Peptide with targeting and/or antimicrobial activity) [Peptide 1T-9] | M. xanthus
7 | 1T-10 (SPAGLPGDGDEA; Peptide with targeting and/or antimicrobial activity) [Peptide 1T-10] | M. xanthus
8 | 1T-11 (RISE; Peptide with targeting and/or antimicrobial activity) [Peptide 1T-11] | S. mutans; also recorded: S. epidermidis; also recorded: P. aeruginosa
9 | 1T-12 (FGNIFKGLKDVIETIVKWTAAK; Peptide with targeting and/or antimicrobial activity) [Peptide 1T-12] | C. xerosis; also recorded: C. striatum; also recorded: S. epidermidis; also recorded: S. mutans
10 | 1T-13 (FRSPCINNNSLQPPGVYPAR; Peptide with targeting and/or antimicrobial activity) [Peptide 1T-13] | S. aureus; also recorded: S. epidermidis; also recorded: P. aeruginosa
11 | 1T-14 (ALAGLAGLISGK; Peptide with targeting and/or antimicrobial activity) [Peptide 1T-14] | S. mutans; also recorded: S. aureus; also recorded: S. epidermidis; also recorded: C. xerosis
12 | 1T-15 (DVILRVEAQ; Peptide with targeting and/or antimicrobial activity) [Peptide 1T-15] | S. mutans
13 | 1T-16 (IDMR; Peptide with targeting and/or antimicrobial activity) [Peptide 1T-16] | P. aeruginosa
14 | 1T-17 (NNAIVYIS; Peptide with targeting and/or antimicrobial activity) [Peptide 1T-17] | S. mutans
15 | 1T-18 (YSKTLHFAD; Peptide with targeting and/or antimicrobial activity) [Peptide 1T-18] | S. aureus; also recorded: S. epidermidis; also recorded: C. striatum; also recorded: P. aeruginosa
16 | 1T-19 (PGAFRNPQMPRG; Peptide with targeting and/or antimicrobial activity) [Peptide 1T-19] | S. aureus; also recorded: S. epidermidis; also recorded: P. aeruginosa

Row | Substance | Target(s)
17 | 1T-20 (PALVDLSNKEAVWAVLDDHS; Peptide with targeting and/or antimicrobial activity) [Peptide 1T-20] | S. mutans; also recorded: P. aeruginosa
18 | 1T-21 (YVEEAVRAALKKEARISTEDTPVNLPSFDC; Peptide with targeting and/or antimicrobial activity) [Peptide 1T-21] | S. mutans; also recorded: P. aeruginosa
19 | 1T-22 (VPLDDGTRRPEVARNRDKDRED; Peptide with targeting and/or antimicrobial activity) [Peptide 1T-22] | S. epidermidis; also recorded: P. aeruginosa
20 | 1T-23 (PALVDLSNKEAVWAVLDDHS; Peptide with targeting and/or antimicrobial activity) [Peptide 1T-23] | S. mutans; also recorded: P. aeruginosa
21 | 1T-24 (EEAEEKLAEVSQAVKRLVR; Peptide with targeting and/or antimicrobial activity) [Peptide 1T-24] | P. aeruginosa
22 | 1T-25 (VGLDVSVLVLFFGLQLLSVLLGAMIR; Peptide with targeting and/or antimicrobial activity) [Peptide 1T-25] | S. aureus; also recorded: S. epidermidis; also recorded: C. xerosis; also recorded: C. striatum; also recorded: P. aeruginosa
23 | 1T-26 (LTILPTTFFAIIVPILAVAFIAYSGFKIKGIVEHKDQW; Peptide with targeting and/or antimicrobial activity) [Peptide 1T-26] | S. mutans; also recorded: S. aureus; also recorded: S. epidermidis; also recorded: C. jeikeium; also recorded: C. xerosis; also recorded: C. striatum; also recorded: P. aeruginosa
24 | 1T-27 (ALFVSLEQFLVVVAKSVFALCHSGTLS; Peptide with targeting and/or antimicrobial activity) [Peptide 1T-27] | S. mutans; also recorded: S. aureus; also recorded: S. epidermidis; also recorded: C. jeikeium; also recorded: C. xerosis; also recorded: C. striatum; also recorded: P. aeruginosa
25 | 1T-28 (VSRDEAMEFIDREWTTLQPAGKSHA; Peptide with targeting and/or antimicrobial activity) [Peptide 1T-28] | P. aeruginosa
26 | 1T-29 (GSVIKKRRKRMSKKKHRKMLRRTRVQRRKLGK; Peptide with targeting and/or antimicrobial activity) [Peptide 1T-29] | S. epidermidis; also recorded: C. jeikeium; also recorded: C. xerosis; also recorded: C. striatum; also recorded: P. aeruginosa; also recorded: S. mutans; also recorded: S. aureus
27 | 1T-30 (GKAKPYQVRQVLRAVDKLETRRKKGGR; Peptide with targeting and/or antimicrobial activity) [Peptide 1T-30] | S. aureus; also recorded: S. epidermidis; also recorded: C. xerosis; also recorded: C. striatum; also recorded: P. aeruginosa
28 | 1T-31 (NATGTDIGEVTLTLGRFS; Peptide with targeting and/or antimicrobial activity) [Peptide 1T-31] | S. mutans; also recorded: P. aeruginosa
29 | 1T-32 (VSFLAGWLCLGLAAWRLGNA; Peptide with targeting and/or antimicrobial activity) [Peptide 1T-32] | S. mutans
30 | 1T-33 (VRTLTILVIFIFNYLKSISYKLKQPFENNLAQSMISI; Peptide with targeting and/or antimicrobial activity) [Peptide 1T-33] | S. aureus; also recorded: S. epidermidis; also recorded: C. jeikeium; also recorded: C. xerosis; also recorded: C. striatum; also recorded: P. aeruginosa
31 | 1T-34 (AFWLNILLTLLGYIPGIVHAVYIIAKR; Peptide with targeting and/or antimicrobial activity) [Peptide 1T-34] | S. aureus; also recorded: S. epidermidis; also recorded: C. jeikeium; also recorded: C. xerosis; also recorded: C. striatum; also recorded: P. aeruginosa
32 | 1T-35 (EICLTLVFPIRGSYSEAAKFPVPIHIVEDGTVELPK; Peptide with targeting and/or antimicrobial activity) [Peptide 1T-35] | P. aeruginosa
